According to patent US6372493B1, “Hormone-secreting cells maintained in long-term culture” (Pacific Biomedical Research, Inc. [Cell Mart, Inc.], priority 1991, dated 2002):

How the values were obtained:
[1] = test system: pancreas cells in long-term culture; assay: Glucose-stimulated insulin secretion, pancreas cells generation 47, frozen/thawed or not (Example 17); format: cell-based, human
Method: The pancreas cell cultures described in Example 16 were passaged approximately every 3-5 days through generation 47. Passaging was done by placing 0.5-1.0 ml of cell suspension into 10 ml fresh medium in a flask. Each flask was flooded with medical blood gas mixture (supra), sealed, and maintained in an incubator at 37° C. Typically, each flask was flooded with fresh gas every other day. At passage 47, the cells had been in continuous culture for 9.5 months.
A portion of the pancreas cells at generation 47 were frozen according to the method described in Example 15 using cryopreservative A. The cells were stored frozen for 1 day, after which they were thawed according to the method described in Example 15.
The thawed cells and cells from generation 47 which had not been frozen were placed in DMSS medium and centrifuged at 1070 rpm for 5 minutes. The pellets were washed and resuspended in 30 ml of Medium PDM (Dulbecco's salt solution, phosphate buffered, with MgSO4 (no MgCl2), plus 2% BSA Fraction V), final osmolality adjusted to 272 mOsm) at 37°.
The cells were incubated 30 minutes at 37°, then centrifuged and resuspended as above. Cell count and viability were determined by Trypan blue exclusion.
The cells were then centrifuged and resuspended in a base medium consisting of 3 parts Medium PDM (supra) and 1 part DMSS, as defined in Example 6 above.

[2] = test system: Human pancreas cells at passage generation 47; assay: Effect of amino acids on glucose stimulated insulin secretion (Example 20); format: cell-based; details: 90 minutes
Method: Human pancreas cells at passage generation 47, were prepared for the experiment as described in Example 17 above. The cells were incubated in 6 parts PDM plus 1 part DMSS medium at a concentration of 10^5 cells/ml, at various concentrations of glucose. Alanine (10 mM) or arginine(20 mM) were added, and the cells were incubated for 90 minutes, at which time samples were collected for assay of insulin content.

[3] = test system: cultured pancreatic islet cells (daughter-islets); assay: Immunofluorescence for insulin after BUDR labelling and glucose stimulation (Example 23); format: cell-based, human; details: 12 mM glucose 6 hours
Method: The tests were done on the same long term cultured daughter-islets described in Example 22, after 3 months of culture (8 passage generations) and after 8 months of cell culture (16 passage generations). Cultures of the daughter-islets were exposed to 30 μgm/ml BUDR for 5 days. The cultures were then placed in normal culture medium (OCZEM-M) for another 5 days. Cultures were then given the same glucose poor basal medium described in Formula VI for 4 hours. Subsequently medium containing 12 mM glucose, described in Example 22, was provided for 6 hours. Cells were immediately fixed and prepared for immunofluorescence. A FITC conjugated secondary antibody to detect BUDR incorporation during DNA synthesis and a TRITC conjugated secondary antibody to detect insulin synthesis in response to glucose stimulation were used according to the following protocol.
d. Cell preparation used procedures to swell the nucleus and preferentially fix the chromosomes in order to maximize the ability to detect BUDR incorporation. The procedures are commonly used to prepare human embryonic cells for florescence in situ hybridization (FISH).
9. Primary antibodies were added, 100 ul @ and the slides were incubated in a moist chamber for 18 hours at 20° C.
11. Secondary antibodies were added to EVERY slide (including the negative controls) in very dim light, 100 ul @ and then the slides were incubated in the dark for 60 minutes at room temperature.
16. After 24 hours the preparations were photographed with Kodak Ektar 100 using Zeiss optics and fluorescence filters (No 2 for Hoechst, No 9 for FITC and No 15 for TRITC).

[4] = test system: human pancreas whole islets; assay: Insulin secretion of cultured whole islets in response to glucose, RIA (Example 24); format: cell-based; details: +10 mM Glucose (Total 12 mM Glucose)
Method: The whole islets were isolated and obtained as described in Example 22. Prior to this experiment they had been in culture for 3¾ months in OCZEM-M and were passage generation 11. Insulin secretion was measured by RIA (Diagnostic Products Corporation).
The cultured whole islets were washed in basal medium [RPMI (5×@ 20 minutes) before the experiment. Then individual whole islets were cultured in the basal level medium containing 2 mM glucose described in Example 22 for 3½ hours (1 islet/1 ml). Each individual islet was then transferred to 1 ml of the basal medium containing an additional 10 mM glucose (to yield a total glucose concentration of 12 mM) and cultured for another 3½ hours. A comparison of the resulting amounts of secreted insulin is shown below in Table 16. Each individual islet was placed in a separate culture dish after the experiment so that future tests on insulin secretion could be measured on identified islets.

daughter-islet cells = assay: Daughter islet cell insulin secretion in response to glucose, RIA (Example 25); format: cell-based, human; details: for Secreted Insulin: 17 months of culture, one hour
Method: The daughter-islets were obtained as progeny arising through cell division from islet cells in the cultured whole islets obtained as isolates from human pancreases. After 17 months of culture the daughter-islet cells were analyzed for their ability to secrete insulin in response to physiological levels of glucose. Formula VI, as described in Examples 22 and 24 with designated glucose concentrations of 2 mM (Basal level), 7.6 mM (Maintence level), 12 mM and 22 mM was used for the experiment. Care was taken to control the osmolarity of each medium to the range of 260-268 mOsm so that no strong osmotic shock was administered to the daughter-islet cells. The cells were washed 5 times, at 20 minutes each wash, with the basal level medium (2 mM glucose level) before the experiment. Each group of 5 daughter-islet was placed in 1 ml of the test medium and incubated at 37° C., with 5% CO2/5% O2/90% N2, for one hour. The medium was collected for assay and new medium containing 7.6 mM glucose was added. The one hour incubation, using the same conditions was then repeated. Those steps were repeated for the challenges with medium containing 12 mM and 22 mM glucose. Analysis of insulin secretion levels was done by RIA as described in Example 24.

Compound: O=C[C@H](O)[C@@H](O)[C@H](O)[C@H](O)CO [glucose, D(+)glucose]
- Insulin secreted ([1]; pg 47, glucose total 1 mM, 1.5 or 3 hours): 92 μIU insulin secreted/ml/10,000
- Insulin secreted ([1]; pg 47, glucose total 2 mM): 100 μIU insulin secreted/ml/10,000
- Insulin secreted ([1]; pg 47, glucose total 6 mM): 111 μIU insulin secreted/ml/10,000
- Insulin secreted ([1]; pg 47, glucose total 11 mM): 117 μIU insulin secreted/ml/10,000
- Insulin secreted ([1]; pg 47, glucose total 16 mM): 129 μIU insulin secreted/ml/10,000
- Insulin secreted ([1]; pg 47, glucose total 21 mM): 116 μIU insulin secreted/ml/10,000
- Insulin secreted ([1]; pg47 frozen/thawed, glucose total 1 mM): 99 μIU insulin secreted/ml/10,000
- Insulin secreted ([1]; pg47 frozen/thawed, glucose total 2 mM): 105 μIU insulin secreted/ml/10,000
- Insulin secreted ([1]; pg47 frozen/thawed, glucose total 6 mM): 114 μIU insulin secreted/ml/10,000
- Insulin secreted ([1]; pg47 frozen/thawed, glucose total 11 mM): 128 μIU insulin secreted/ml/10,000
- Insulin secreted ([1]; pg47 frozen/thawed, glucose total 16 mM): 125 μIU insulin secreted/ml/10,000
- Insulin secreted ([1]; pg47 frozen/thawed, glucose total 21 mM): 124 μIU insulin secreted/ml/10,000
- insulin secretion, control (glucose alone) ([2]; total 1 mM glucose, 10^5 cells/ml): 91
- insulin secretion, control (glucose alone) ([2]; total 2 mM glucose): 108
- insulin secretion, control (glucose alone) ([2]; total 6 mM glucose): 112
- insulin secretion, control (glucose alone) ([2]; total 11 mM glucose): 116
- insulin secretion, control (glucose alone) ([2]; total 16 mM glucose): 128
- insulin secretion, control (glucose alone) ([2]; total 22 mM glucose): 115
- Insulin positive ([3]; 8th passage generation (3 mo. culture)): 86%
- Insulin positive (number of cells) ([3]; 8th passage generation (3 mo. culture), 204 cells analyzed): 175
- Insulin positive ([3]; 16th passage generation (8 mos. culture)): 90%
- Insulin positive (number of cells) ([3]; 16th passage generation (8 mos. culture), 187 cells analyzed): 168
- Secreted Insulin ([4]; 2 Medium islets @): 162.2 uIU/ml/hr
- Secreted Insulin ([4]; 2 Very small islets @ (<0.5 μm)): 84.5 uIU/ml/hr
- Secreted Insulin ([4]; Extra large islet (>250 μm), 3½ hours): 86.7 uIU/ml/hr
- Secreted Insulin ([4]; Large islet (˜150 μm)): 149.4 uIU/ml/hr
- Secreted Insulin (daughter-islet cells; 12 mM glucose): 38.6 μIU/ml/hour/10^3 cells
- Secreted Insulin (daughter-islet cells; 22 mM glucose): 144.5 μIU/ml/hour/10^3 cells
- maximal response relative to the basal level (daughter-islet cells; basal level 0.3 at 2 mM glucose): 482 times
